target: T1, γ-secretase (Aβ(1-42) production in SH-SY5Y neuroblastoma cells overexpressing SPA4CT) (Homo sapiens, UniProt P49768); experiment: Cell-based γ-secretase assay, Aβ(1-42) inhibition; settings: overnight incubation, Meso Scale detection of Aβ(42)
T1 construct: Human SH-SY5Y neuroblastoma cells overexpressing the direct 7-secretase substrate SPA4CT; endogenous in cells; host or cells: Human SH-SY5Y neuroblastoma cells (stably overexpressing the substrate SPA4CT, induced with sodium butyrate)
Procedure: Cell-Based γ-Secretase Assay
Human SH-SY5Y neuroblastoma cells overexpressing the direct 7-secretase substrate SPA4CT were induced with sodium butyrate (10 mM) for 4 hours prior to plating. Cells were plated at 35,000 cells/well/100 μl in 96-well plates in phenol red-free MEM/10% FBS, 50 mM HEPES, 1% Glutamine and incubated for 2 hrs at 37° C., 5% CO2.
Compounds for testing were diluted into Me2SO to give a ten point dose-response curve. Typically 10 μl of these diluted compounds in Me2SO were further diluted into 182 μl dilution buffer (phenol red-free MEM/10% FBS, 50 mM HEPES, 1% Glutamine) and 10 μl of each dilution was added to the cells in 96-well plates (yielding a final Me2SO concentration of 0.5%). Appropriate vehicle and inhibitor controls were used to determine the window of the assay.
After incubation overnight at 37° C., 5% CO2, 25 μl and 50 μl media were transferred into a standard Meso avidin-coated 96-well plate for detection of Aβ(40) and Aβ(42) peptides, respectively. 25 μl Meso Assay buffer (PBS, 2% BSA, 0.2% Tween-20) was added to the Aβ(40) wells followed by the addition of 25 μl of the respective antibody premixes to the wells: • Aβ(40) premix: 1 μg/ml ruthenylated G2-10 antibody, 4 μg/ml biotinylated 4G8 antibody diluted in Origen buffer • Aβ(42) premix: 1 μg/ml ruthenylated G2-11 antibody, 4 μg/ml biotinylated 4G8 antibody diluted in Origen buffer
(Biotinylated 4G8 antibody supplied by Signet Pathology Ltd; G2-10 and G2-11 antibodies supplied by Chemicon)
After overnight incubation of the assay plates on a shaker at 4° C., the Meso Scale Sector 6000 Imager was calibrated according to the manufacturer's instructions. After washing the plates 3 times with 150 μl of PBS per well, 150 μl Meso Scale Discovery read buffer was added to each well and the plates were read on the Sector 6000 Imager according to the manufacturer's instructions.
LD50 and IC50 values for inhibition of Aβ(40) and Aβ(42) were calculated by nonlinear regression fit analysis using the appropriate software (eg. Excel fit). The total signal and the background were defined by the corresponding Me2SO and inhibitor controls.

Row | SMILES | IC50 [µM]
1 | CCN(CC)c1ccc(Nc2nc(N3CCN(c4ccc(OC)cc4)C(C)(C)C3)ncc2C)c(C)c1 [Example 14, N4,N4-diethyl-N1-{2-[4-(4-methoxyphenyl)-3,3-dimethylpiperazin-1-yl]-5-methylpyrimidin-4-yl}-2-methylbenzene-1,4-diamine] | < 0.5
2 | CCN(CC)c1ccc(Nc2cc(C)nc(N3CCN(c4ccc(OC)cc4)C(C)(C)C3)n2)c(C)c1 [Example 15, N4,N4-diethyl-N1-{2-[4-(4-methoxyphenyl)-3,3-dimethylpiperazin-1-yl]-6-methylpyrimidin-4-yl}-2-methylbenzene-1,4-diamine] | 0.5 to 1
3 | CCN(CC)c1cc(C)c(Nc2ccnc(N3CCN(c4ccc(OC)cc4)C(C)(C)C3)n2)cc1C [Example 16, N4,N4-diethyl-N1-{2-[4-(4-methoxyphenyl)-3,3-dimethylpiperazin-1-yl]pyrimidin-4-yl}-2,5-dimethylbenzene-1,4-diamine] | < 0.5
4 | CCN(CC)c1ccc(Nc2nc(N3CCN(c4ccc(OC)cc4)C(C)(C)C3)ncc2F)c(C)c1 [Example 18, N4,N4-diethyl-N1--{5-fluoro-2-[4-(4-methoxyphenyl)-3,3-dimethylpiperazin-1-yl]pyrimidin-4-yl}-2-methylbenzene-1,4-diamine] | < 0.5
5 | CCN(CC)c1ccc(Nc2ccnc(N3CCN(c4ccc(OC)c(OC)c4)CC3)n2)c(C)c1 [Example 24, N1-{2-[4-(3,4-dimethoxyphenyl)piperazin-1-yl]pyrimidin-4-yl}-N4,N4-diethyl-2-methylbenzene-1,4-diamine] | 1 to 3
6 | CCN(CC)c1ccc(Nc2nc(N3CCN(c4ccc(OC)cc4)C(C)(C)C3)ncc2OC)c(C)c1 [Example 25, N4,N4-diethyl-N1-{5-methoxy-2-[4-(4-methoxyphenyl)-3,3-dimethylpiperazin-1-yl]pyrimidin-4-yl}-2-methylbenzene-1,4-diamine] | < 0.5
7 | CCN(CC)c1ccc(Nc2cc(C(=O)N(C)C)nc(N3CCN(c4ccc(OC)cc4)C(C)(C)C3)n2)c(C)c1 [Example 27, 6-{[4-(diethylamino)-2-methylphenyl]amino}-2-[4-(4-methoxyphenyl)-3,3-dimethylpiperazin-1-yl]-N,N-dimethylpyrimidine-4-carboxamide] | < 0.5
8 | COc1ccc(N2CCN(c3nccc(Nc4cc(C(C)(C)C)nn4C)n3)CC2(C)C)cc1 [Example 37, N-(3-tert-butyl-1-methyl-1H-pyrazol-5-yl)-2-[4-(4-methoxyphenyl)-3,3-dimethylpiperazin-1-yl]pyrimidin-4-amine] | < 0.5
9 | COc1ccc(N2CCN(c3ncc(F)c(Nc4cc(C(C)(C)C)nn4C)n3)CC2(C)C)cc1 [Example 38, N-(3-tert-butyl-1-methyl-1H-pyrazol-5-yl)-5-fluoro-2-[4-(4-methoxyphenyl)-3,3-dimethylpiperazin-1-yl]pyrimidin-4-amine] | < 0.5
10 | COc1ccc(N2CCN(c3nccc(Nc4ccc(-n5cccn5)cc4C)n3)CC2(C)C)cc1 [Example 41, 2-[4-(4-methoxyphenyl)-3,3-dimethylpiperazin-1-yl]-N-[2-methyl-4-(1H-pyrazol-1-yl)phenyl]pyrimidin-4-amine] | 0.5 to 1
11 | CCCCc1ccc(Nc2ccnc(N3CCN(c4ccc(OC)cc4)C(C)(C)C3)n2)c(C)c1 [Example 44, N-(4-butyl-2-methylphenyl)-2-[4-(4-methoxyphenyl)-3,3-dimethylpiperazin-1-yl]pyrimidin-4-amine] | 1 to 3
12 | CCOc1cc(C)c(Nc2ccnc(N3CCN(c4ccc(OC)cc4)C(C)(C)C3)n2)cc1C(C)C [Example 45, N-(4-ethoxy-5-isopropyl-2-methylphenyl)-2-[4-(4-methoxyphenyl)-3,3-dimethylpiperazin-1-yl]pyrimidin-4-amine] | < 0.5
13 | COc1ccc(N2CCN(c3ncc(F)c(Nc4cc(C(C)(C)C)ccc4C)n3)CC2(C)C)cc1F [Example 88, N-(5-tert-butyl-2-methylphenyl)-5-fluoro-2-[4-(3-fluoro-4-methoxyphenyl)-3,3-dimethylpiperazin-1-yl]pyrimidin-4-amine] | 0.5 to 1

The remaining lines, values ahead:

Row | IC50 [µM] | SMILES
14 | 1 to 3 | CCN(CC)c1ccc(Nc2ccnc(N3CCN(c4ccc(OC)cc4)CC3)n2)c(C)c1 [Example 3, N,N-Diethyl-N-{2-[4-(4-methoxy-phenyl)-piperazin-1-yl]-pyrimidin-4-yl}-2-methyl-benzene-1,4-diamine]
15 | 1 to 3 | CCN(CC)c1ccc(Nc2ccnc(N3CCN(c4ccc(OC)nc4)CC3)n2)c(C)c1 [Example 5]
16 | 0.5 to 1 | COc1ccc(N2CCN(c3ncc(F)c(Nc4cc(C(C)(C)C)ccc4C)n3)CC2(C)C)cc1 [Example 8]
17 | 0.5 to 1 | CCN(CC)c1ccc(Nc2ccnc(N3CCN(c4ccc(OC)cc4)C(C)C3)n2)c(C)c1 (stereo not shown) [Example 10, N4,N4-diethyl-N1-{2-[4-(4-methoxyphenyl)-3-methylpiperazin-1-yl]pyrimidin-4-yl}-2-methylbenzene-1,4-diamine]
18 | 1 to 3 | COc1ccc(N2CCN(c3nccc(Nc4cc(OC)ccc4C)n3)CC2(C)C)cc1 [Example 11, N-(5-methoxy-2-methylphenyl)-2-[4-(4-methoxyphenyl)-3,3-dimethylpiperazin-1-yl]pyrimidin-4-amine]
19 | 0.5 to 1 | CCN(CC)c1ccc(Nc2nc(N3CCN(c4ccc(OC)cc4)C(C)(C)C3)ncc2Cl)c(C)c1 [Example 19, N1-{5-chloro-2-[4-(4-methoxyphenyl)-3,3-dimethylpiperazin-1-yl]pyrimidin-4-yl}-N4,N4-diethyl-2-methylbenzene-1,4-diamine]
20 | 0.5 to 1 | CCN(CC)c1ccc(Nc2nc(N3CCN(c4ccc(OC)cc4)C(C)(C)C3)ncc2Br)c(C)c1 [Example 20, N1-{5-bromo-2-[4-(4-methoxyphenyl)-3,3-dimethylpiperazin-1-yl]pyrimidin-4-yl}-N4,N4-diethyl-2-methylbenzene-1,4-diamine]
21 | < 0.5 | CCN(CC)c1ccc(Nc2cc(C(=O)OC)nc(N3CCN(c4ccc(OC)cc4)C(C)(C)C3)n2)c(C)c1 [Example 22, methyl 6-{[4-(diethylamino)-2-methylphenyl]amino}-2-[4-(4-methoxyphenyl)-3,3-dimethylpiperazin-1-yl]pyrimidine-4-carboxylate]
22 | 0.5 to 1 | CCN(CC)c1ccc(Nc2cc(C(=O)O)nc(N3CCN(c4ccc(OC)cc4)C(C)(C)C3)n2)c(C)c1 [Example 26, 6-[[4-(diethylamino)-2-methylphenyl]amino]-2-[4-(4-methoxyphenyl)-3,3-dimethyl-1-piperazinyl]-4-pyrimidinecarboxylic acid]
23 | < 0.5 | CCOc1cc(C)c(Nc2cc(C(=O)OC)nc(N3CCN(c4ccc(OC)cc4)C(C)(C)C3)n2)cc1C(C)C [Example 28, 6-[(4-ethoxy-5-isopropyl-2-methylphenyl)amino]-2-[4-(4-methoxyphenyl)-3,3-dimethylpiperazin-1-yl]pyrimidine-4-carboxylate methyl]
24 | 0.5 to 1 | COc1ccc(N2CCN(c3nccc(Nc4ccc(N5CCC5)cc4C)n3)CC2(C)C)cc1 [Example 43, N-(4-azetidin-1-yl-2-methylphenyl)-2-[4-(4-methoxyphenyl)-3,3-dimethylpiperazin-1-yl]pyrimidin-4-amine]
25 | < 0.5 | COc1ccc(N2CCN(c3nc(Nc4cc(C(C)(C)C)ccc4C)cc(C(=O)N(C)CCN(C)C)n3)CC2(C)C)cc1 [Example 93, 6-[(5-tert-butyl-2-methylphenyl)amino]-N-[2-(dimethylamino)ethyl]-2-[4-(4-methoxyphenyl)-3,3-dimethylpiperazin-1-yl]-N-methylpyrimidine-4-carboxamide]

Reference: patent US20100204230A1, “PIPERAZINE DERIVATIVES FOR TREATMENT OF AD AND RELATED CONDITIONS” (priority 2007, published 2010)
